Tested on: HSV-1
Test: HSV-1 infection of Vero 76 cells, viral DNA hybridization capture assay
Type: cell-based
Details: Human alphaherpesvirus 1; HSV-1 (MOI=0.001) in Vero 76 cells, 40–48 hours incubation, HSV DNA hybridization with chemiluminescence detection
Protocol: Vero 76 cells were maintained in MEM with Earle's salts, L-glutamine, 8% FBS (Hyclone, A-1111-L) and 100 units/mL Penicillin-100 μg/mL Streptomycin. For assay conditions, FBS was reduced to 2%. Cells are seeded into 96-well tissue culture plates at a density of 5×10^4 cells/well after being incubated for 45 min at 37° C. in the presence of HSV-1 or HSV-2 (MOI=0.001). Test compounds are added to the wells and the plates are incubated at 37° C. for 40–48 hours. Cell lysates are prepared as follows: media was removed and replaced with 150 μL/well 0.2 N NaOH with 1% Igepal CA 630 or NP-40. Plates were incubated up to 14 days at room temperature in a humidified chamber to prevent evaporation.
For the detection probe, a gel-purified, digoxigenin-labeled, […] PCR fragment of the HSV UL-15 sequence was utilized. PCR conditions included 0.5 μM primers, 180 μM dTTP, 20 μM dUTP-digoxigenin (Boehringer Mannheim 1558706), 200 μM each of dATP, dCTP, and dGTP, 1×PCR Buffer II (Perkin Elmer), 2.5 mM, MgCl2, 0.025 units/μL of AmpliTaq Gold polyerase (Perkin Elmer), and 5 ng a gel-purified HSV DNA per 100 μL Extension conditions were 10 min at 95° C., followed by 30 cycles of 95° C. for 1 min, 55° C. for 30 sec, and 72° C. for 2 min. The amplification was completed with a 10-min incubation at 72° C. Primers were selected to amplify a 728 bp probe spanning a section of the HSV1 UL15 open reading frame (nucleotides 249–977). Single-stranded transcripts were purified with Promega M13 Wizard kits. The final product was mixed 1:1 with a mixture of 6 M GuSCN, 100 mM EDTA and 200 μg/mL herring sperm DNA and stored at 4° C.
The capture DNA plasmid (HSV UL13 region in pUC) was linearized by cutting with Xba I, denatured for 15 min at 95° C. and diluted immediately into Reacti-Bind DNA Coating Solution (Pierce, 17250, diluted 1:1 with TE buffer, pH 8) at 1 ng/μL 75 μl/well were added to Corning (#3922 or 9690) white 96-well plates and incubated at room temperature for at least 4 hrs before washing twice with 300 μL/well 0.2×SSC/0.05% Tween-20 (SSC/T buffer). The plates were then incubated overnight at room temperature with 150 μL/well 0.2 N NaOH, 1% IGEPAL and 10 μg/mL herring sperm DNA.
Twenty-seven (27) μL of cell lysate was combined with 45 μL of hydridization solution (final concentration: 3M GuSCN, 50 mM EDTA, 100 μg/ml salmon sperm DNA, 5× Denhardt's solution, 0.25× APE, and 5 ng of the digoxigenin-labeled detection probe). APE is 1.5 M NH4-acetate, 0.15 M NH4H2phosphate, and 5 mM EDTA adjusted to pH 6.0. Mineral oil (50 μL) was added to prevent evaporation. The hybridization plates were incubated at 95° C. for 10 minutes to denature the DNA, then incubated at 42° C. overnight. The wells were washed 6× with 300 μL/well SSC/T buffer then incubated with 75 μL/well anti-digoxigenin-HRP-conjugated antibody (Boehringer Mannheim 1207733, 1:5000 in TE) for 30 min at room temperature. The wells were washed 6× with 300 μL/well with PBS/0.05% Tween-20 before 75 μL/well SuperSignal LBA substrate (Pierce) was added. The plates were incubated at room temperature for 30 minutes and chemiluminescence was measured in a Wallac Vietor reader.
The following results were obtained for HSV-1.

SMILES	IC50
CC(C)(C)Nc1nccc(-c2c(-c3ccc(F)cc3)nn3c(NC4CCCC4)nccc23)n1 [Example 19, 3-[2-(tert-Butylamino)pyrimidin-4-yl]-N-cyclopentyl-2-(4-fluorophenyl)pyrazolo[1,5-c]pyrimidin-7-amine]	3 µM
Fc1ccc(-c2nn3c(NC4CCCC4)nccc3c2-c2ccnc(Nc3nc4ccccc4s3)n2)cc1 [Example 14, 3-[2-(1,3-Benzothiazol-2-ylamino)pyrimidin-4-yl]-N-cyclopentyl-2-(4-fluorophenyl)pyrazolo[1,5-c]pyrimidin-7-amine]	> 40 µM
c1ccc(-c2nn3c(NC4CCCC4)nc(NC4CCCC4)nc3c2-c2ccnc(NC3CCCC3)c2)cc1 [Example 10, N^2,N^4-Dicyclopentyl-8-[2-(cyclopentylamino)-4-pyridinyl]-7-phenylpyrazolo[1,5-a][1,3,5]triazine-2,4-diamine]	0.12 µM
Oc1ccc(-c2nn3c(NC4CCCC4)nccc3c2-c2ccnc(NC3CCCC3)n2)cc1 [Example 22, 4-{7-(Cyclopentylamino)-3-[2-(cyclopentylamino)pyrimidin-4-yl]pyrazolo[1,5-c]pyrimidin-2-yl}phenol]	4 µM
CSc1nccc2c(-c3ccnc(NC4CCCC4)n3)c(-c3cccc(Cl)c3)nn12 [Example 4, 4-[2-(3-Chlorophenyl)-7-(methylthio)pyrazolo[1,5-c]pyrimidin-3-yl]-N-cyclopentylpyrimidin-2-amine]	11.3 µM
Fc1ccc(-c2nn3c(N4CCCC4)nccc3c2-c2ccnc(NC3CCCC3)n2)cc1 [Example 30, N-Cyclopentyl-4-[2-(4-fluorophenyl)-7-pyrrolidin-1-ylpyrazolo[1,5-c]pyrimidin-3-yl]pyrimidin-2-amine]	2 µM
CC(C)(C)Nc1nccc2c(-c3ccnc(NC4CCCC4)n3)c(-c3ccc(F)cc3)nn12 [Example 29, N-(tert-Butyl)-3-[2-(cyclopentylamino)pyrimidin-4-yl]-2-(4-fluorophenyl)pyrazolo[1,5-c]pyrimidin-7-amine]	7 µM
Fc1ccc(-c2nn3c(NC4CCCC4)nccc3c2-c2ccnc(NCCc3ccccc3)n2)cc1 [Example 18, N-Cyclopentyl-2-(4-fluorophenyl)-3-{2-[(2-phenylethyl)amino]pyrimidin-4yl}pyrazolo[1,5-c]pyrimidin-7-amine]	3.5 µM
CCCOc1ccc(-c2nn3c(NC4CCCC4)nccc3c2-c2ccnc(NC3CCCC3)n2)cc1 [Example 28, N-Cyclopentyl-3-[2-(cyclopentylamino)pyrimidin-4-yl]-2-(4-propoxyphenyl)pyrazolo[1,5-c]pyrimidin-7-amine]	0.5 µM
c1ccc(-c2nn3c(NC4CCCC4)ncnc3c2-c2ccnc(NC3CCCC3)n2)cc1 [Example 11, N-Cyclopentyl-8-[2-(cyclopentylamino)-4-pyrimidinyl]-7-phenylpyrazolo[1,5-a][1,3,5]triazin-4-amine]	6.4 µM
COc1ccc(-c2nn3c(NC4CC4)nccc3c2-c2ccnc(NC3CCCC3)n2)cc1 [Example 24, 3-[2-(Cyclopentylamino)pyrimidin-4-yl]-N-cyclopropyl-2-(4-methoxyphenyl)pyrazolo[1,5-c]pyrimidin-7-amine]	1 µM
Clc1cccc(-c2nn3c(NC4CCCC4)nccc3c2-c2ccnc(NC3CCCC3)n2)c1 [Example 5, 2-(3-Chlorophenyl)-N-cyclopentyl-3-[2-(cyclopentylamino)-4-pyrimidinyl]pyrazolo[1,5-c]pyrimidin-7-amine]	0.46 µM
CSc1nccc2c(-c3ccnc(NC4CCCC4)n3)c(-c3ccc(F)cc3)nn12 [Example 20, N-Cyclopentyl-4-[2-(4-fluorophenyl)-7-(methylsulfanyl)pyrazolo[1,5-c]pyrimidin-3-yl]pyrimidin-2-amine]	> 40 µM
Clc1cccc(-c2nn3c(N4CCOCC4)nccc3c2-c2ccnc(NC3CCCC3)n2)c1 [Example 6, 4-[2-(3-Chlorophenyl)-7-(4-morpholinyl)pyrazolo[1,5-c]pyrimidin-3-yl]-N-cyclopentyl-2-pyrimidinamine]	0.2 µM
Fc1ccc(-c2nn3c(NC4CCCC4)nccc3c2-c2ccnc(Nc3nc4ccccc4[nH]3)n2)cc1 [Example 16, 3-[2-(1H-Benzimidazol-2-ylamino)pyrimidin-4-yl]-N-cyclopentyl-2-(4-fluorophenyl)pyrazolo[1,5-c]pyrimidin-7-amine]	> 40 µM
CCCCOc1ccc(-c2nn3c(NC4CCCC4)nccc3c2-c2ccnc(NC3CCCC3)n2)cc1 [Example 25, 2-(4-Butoxyphenyl)-N-cyclopentyl-3-[2-(cyclopentylamino)pyrimidin-4-yl]pyrazolo[1,5-c]pyrimidin-7-amine]	0.6 µM
Fc1ccc(-c2nn3c(N4CCCCC4)nccc3c2-c2ccnc(NC3CCCC3)n2)cc1 [Example 31, N-Cyclopentyl-4-[2-(4-fluorophenyl)-7-piperidin-1-ylpyrazolo[1,5-c]pyrimidin-3-yl]pyrimidin-2-amine]	1 µM

Source: patent US7247626B2, “Pyrazolopyrimidine derivatives and pharmaceutical compositions containing them” (SmithKline Beecham Corporation, priority 2002, dated 2007)
